Where a SMILES comes first, the peptide text is derived from it. Bridges are numbered along the chain shown (N, C = ends). [ ]: non-standard residue; d: D form. The star is where a group is joined. Val(Nα-amidino) = CC(C)[C@H](NC(=N)N)C(=O)*; Hyp = O=C(O)[C@@H]1C[C@@H](O)CN1; Cit = NC(=O)NCCC[C@H](N)C(=O)O; Pen = CC(C)(S)[C@H](N)C(=O)O; ΔPro = O=C(O)[C@@H]1C=CCN1; dDab = NCC[C@@H](N)C(=O)O; Dab = NCC[C@H](N)C(=O)O
How the values were obtained:
Format in all cases: cell-based
[1] = system: Escherichia coli ATCC 25922; settings: ATCC 25922
Outline: (§1)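 MICs were determined by CLSI broth microdilution in cation-adjusted Mueller-Hinton II broth with about 5×10^5 CFU/mL inoculum. Peptides were tested in two-fold serial dilutions with 0.002% polysorbate 80 final. MIC in μg/mL is the lowest concentration with no visible growth after 18-20 h at 35 °C.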

[2] = system: Escherichia coli MCR-1 Af 45; settings: MCR-1 Af 45
Outline: as §1

[3] = system: Klebsiella pneumoniae SSI3010; settings: SSI3010
Outline: as §1

[4] = system: human red blood cells (hRBC); settings: red cells of human, 1 h, 200 μg/mL
Outline: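 Peptides at 200 μg/mL incubated 1 h at 37 °C with 20% (v/v) washed human RBC, shaking. Hemolysis from supernatant OD540, expressed as percent of 2.5% Triton X-100 lysis, with PBS as 0%.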

| Escherichia coli ATCC 25922 MIC [1] [µg/mL] | Escherichia coli MCR-1 Af45 MIC [2] [µg/mL] | Klebsiella pneumoniae SSI3010 MIC [3] [µg/mL] | Compound | Hemolysis at 0.2 g/L [4] [%] |
| --- | --- | --- | --- | --- |
| 0.25 | 0.25 | 0.5 | CC[C@H](C)[C@H](NC(=O)[C@@H]1C[C@@H](O)CN1C(=O)[C@@H](NC(=N)N)C(C)C)C(=O)N[C@@H]1C(=O)N[C@@H](Cc2ccc(O)cc2)C(=O)N[C@@H](CCN)C(=O)N[C@@H](CC(N)=O)C(=O)N[C@@H](CCCNC(=N)N)C(=O)N[C@@H](CCN)C(=O)N[C@@H]([C@@H](C)O)C(=O)N[C@H](CCN)C(=O)N[C@@H](CO)C(=O)N[C@@H]([C@@H](C)O)C(=O)N[C@@H](CCN)C(=O)N[C@H](C(=O)N[C@@H](Cc2ccc(O)cc2)C(=O)O)CSSC1(C)C [Example 102, Gua-Val-Hyp-Ile-Pen-Tyr-Dab-Asn-Arg-Dab-Thr-^DDab-Ser-T-Dab-Cys-Tyr] ({Val(Nα-amidino)}-[Hyp]I[Pen]Y[Dab]NR[Dab]T[dDab]ST[Dab]CY-OH; disulfide 3-14) | <1 |
| 0.125 | 0.125 | 0.25 | CC[C@H](C)[C@H](NC(=O)[C@@H]1C[C@@H](O)CN1C(=O)[C@@H](NC(=N)N)C(C)C)C(=O)N[C@@H]1C(=O)N[C@@H](Cc2ccc(O)cc2)C(=O)N[C@@H]([C@@H](C)O)C(=O)N[C@@H](CC(N)=O)C(=O)N[C@@H](CCCNC(=N)N)C(=O)N[C@H](CCN)C(=O)N[C@@H]([C@@H](C)O)C(=O)N[C@H](CCN)C(=O)N[C@@H](CO)C(=O)N[C@@H](CCN)C(=O)N[C@@H](CCN)C(=O)N[C@H](C(=O)N[C@@H](Cc2ccc(O)cc2)C(=O)O)CSSC1(C)C [Example 103, Gua-Val-Hyp-Ile-Pen-Tyr-Thr-Asn-Arg-^DDab-Thr-^DDab-Ser-Dab-Dab-Cys-Tyr] ({Val(Nα-amidino)}-[Hyp]I[Pen]YTNR[dDab]T[dDab]S[Dab][Dab]CY-OH; disulfide 3-14) | <1 |
| 0.25 | 0.25 | 0.25 | CC[C@H](C)[C@H](NC(=O)[C@@H]1C[C@@H](O)CN1C(=O)[C@@H](NC(=N)N)C(C)C)C(=O)N[C@@H]1C(=O)N[C@@H](Cc2ccc(O)cc2)C(=O)N[C@@H](CO)C(=O)N[C@@H](CC(N)=O)C(=O)N[C@@H](CCCNC(=N)N)C(=O)N[C@H](CCN)C(=O)N[C@@H]([C@@H](C)O)C(=O)N[C@H](CCN)C(=O)N[C@@H](CO)C(=O)N[C@@H](CCN)C(=O)N[C@@H](CCN)C(=O)N[C@H](C(=O)N[C@@H](Cc2ccc(O)cc2)C(=O)O)CSSC1(C)C [Example 104, Gua-Val-Hyp-Ile-Pen-Tyr-Ser-Asn-Arg-^DDab-Thr-^DDab-Ser-Dab-Dab-Cys-Tyr] ({Val(Nα-amidino)}-[Hyp]I[Pen]YSNR[dDab]T[dDab]S[Dab][Dab]CY-OH; disulfide 3-14) | <1 |
| 0.125 | 0.125 | 0.25 | CC[C@H](C)[C@H](NC(=O)[C@@H]1C[C@@H](O)CN1C(=O)[C@@H](NC(=N)N)C(C)C)C(=O)N[C@@H]1C(=O)N[C@@H](Cc2ccc(O)cc2)C(=O)N[C@@H]([C@@H](C)O)C(=O)N[C@@H](CC(N)=O)C(=O)N[C@@H](CCCNC(=N)N)C(=O)N[C@@H](CCN)C(=O)N[C@@H]([C@@H](C)O)C(=O)N[C@H](CCN)C(=O)N[C@@H](CC(N)=O)C(=O)N[C@@H](CCN)C(=O)N[C@@H](CCN)C(=O)N[C@H](C(=O)N[C@@H](Cc2ccc(O)cc2)C(=O)O)CSSC1(C)C [Example 105, Gua-Val-Hyp-Ile-Pen-Tyr-Thr-Asn-Arg-Dab-Thr-^DDab-Asn-Dab-Dab-Cys-Tyr] ({Val(Nα-amidino)}-[Hyp]I[Pen]YTNR[Dab]T[dDab]N[Dab][Dab]CY-OH; disulfide 3-14) | <1 |
| 0.125 | 0.125 | 0.25 | CC[C@H](C)[C@H](NC(=O)[C@@H]1C[C@@H](O)CN1C(=O)[C@@H](NC(=N)N)C(C)C)C(=O)N[C@@H]1C(=O)N[C@@H](Cc2ccc(O)cc2)C(=O)N[C@@H](CO)C(=O)N[C@@H](CC(N)=O)C(=O)N[C@@H](CCCNC(=N)N)C(=O)N[C@@H](CCN)C(=O)N[C@@H]([C@@H](C)O)C(=O)N[C@H](CCN)C(=O)N[C@@H](CCCNC(N)=O)C(=O)N[C@@H](CCN)C(=O)N[C@@H](CCN)C(=O)N[C@H](C(=O)N[C@@H](Cc2ccc(O)cc2)C(=O)O)CSSC1(C)C [Example 106, Gua-Val-Hyp-Ile-Pen-Tyr-Ser-Asn-Arg-Dab-Thr-^DDab-Cit-Dab-Dab-Cys-Tyr] ({Val(Nα-amidino)}-[Hyp]I[Pen]YSNR[Dab]T[dDab][Cit][Dab][Dab]CY-OH; disulfide 3-14) | <1 |
| 0.125 | 0.125 | 0.25 | CC[C@H](C)[C@H](NC(=O)[C@@H]1C[C@@H](O)CN1C(=O)[C@@H](NC(=N)N)C(C)C)C(=O)N[C@@H]1C(=O)N[C@@H](Cc2ccc(O)cc2)C(=O)N[C@@H](CO)C(=O)N[C@@H](CC(N)=O)C(=O)N[C@@H](CCCNC(=N)N)C(=O)N[C@@H](CCN)C(=O)N[C@@H]([C@@H](C)O)C(=O)N[C@H](CCN)C(=O)N[C@@H](CC(N)=O)C(=O)N[C@@H](CCN)C(=O)N[C@@H](CCN)C(=O)N[C@H](C(=O)N[C@@H](Cc2ccc(O)cc2)C(=O)O)CSSC1(C)C [Example 107, Gua-Val-Hyp-Ile-Pen-Tyr-Ser-Asn-Arg-Dab-Thr-^DDab-Asn-Dab-Dab-Cys-Tyr] ({Val(Nα-amidino)}-[Hyp]I[Pen]YSNR[Dab]T[dDab]N[Dab][Dab]CY-OH; disulfide 3-14) | <1 |
| 0.25 | 0.125 | 0.25 | CC[C@H](C)[C@H](NC(=O)[C@@H]1C[C@@H](O)CN1C(=O)[C@@H](NC(=N)N)C(C)C)C(=O)N[C@@H]1C(=O)N[C@@H](Cc2ccc(O)cc2)C(=O)N[C@@H]([C@@H](C)O)C(=O)N[C@@H](CC(N)=O)C(=O)N[C@@H](CCCNC(=N)N)C(=O)N[C@@H](CCN)C(=O)N[C@@H]([C@@H](C)O)C(=O)N[C@H](CCN)C(=O)N[C@@H](CCCCN)C(=O)N[C@@H](CCN)C(=O)N[C@@H](CO)C(=O)N[C@H](C(=O)N[C@@H](Cc2ccc(O)cc2)C(=O)O)CSSC1(C)C [Example 108, Gua-Val-Hyp-Ile-Pen-Tyr-Thr-Asn-Arg-Dab-Thr-Dab-Lys-Dab-S-Cys-Tyr] ({Val(Nα-amidino)}-[Hyp]I[Pen]YTNR[Dab]T[dDab]K[Dab]SCY-OH; disulfide 3-14) | <1 |
| 0.0625 | 0.03125 | 0.125 | CC[C@H](C)[C@H](NC(=O)[C@@H]1C=CCN1C(=O)[C@@H](NC(=N)N)C(C)C)C(=O)N[C@@H]1C(=O)N[C@@H](Cc2ccc(O)cc2)C(=O)N[C@@H]([C@@H](C)O)C(=O)N[C@@H](CC(N)=O)C(=O)N[C@@H](CCCNC(=N)N)C(=O)N[C@@H](CCN)C(=O)N[C@@H]([C@@H](C)O)C(=O)N[C@H](CCN)C(=O)N[C@@H](CCCCN)C(=O)N[C@@H](CCN)C(=O)N[C@@H](CCN)C(=O)N[C@H](C(=O)N[C@@H](Cc2ccc(O)cc2)C(=O)O)CSSC1(C)C [Example 109, Gua-Val-Pro(3,4dehydro)-Ile-Pen-Tyr-Thr-Asn-Arg-Dab-Thr-^DDab-Lys-Dab-Dab-Cys-Tyr] ({Val(Nα-amidino)}-[ΔPro]I[Pen]YTNR[Dab]T[dDab]K[Dab][Dab]CY-OH; disulfide 3-14) | <1 |
| 0.0625 | 0.0625 | 0.125 | CC[C@H](C)[C@H](NC(=O)[C@@H]1C=CCN1C(=O)[C@@H](NC(=N)N)C(C)C)C(=O)N[C@@H]1C(=O)N[C@@H](Cc2ccc(O)cc2)C(=O)N[C@@H](CO)C(=O)N[C@@H](CC(N)=O)C(=O)N[C@@H](CCCNC(=N)N)C(=O)N[C@@H](CCN)C(=O)N[C@@H]([C@@H](C)O)C(=O)N[C@H](CCN)C(=O)N[C@@H](CCCCN)C(=O)N[C@@H](CCN)C(=O)N[C@@H](CCN)C(=O)N[C@H](C(=O)N[C@@H](Cc2ccc(O)cc2)C(=O)O)CSSC1(C)C [Example 110, Gua-Val-Pro(3,4dehydro)-Ile-Pen-Tyr-Ser-Asn-Arg-Dab-Thr-^DDab-Lys-Dab-Dab-Cys-Tyr] ({Val(Nα-amidino)}-[ΔPro]I[Pen]YSNR[Dab]T[dDab]K[Dab][Dab]CY-OH; disulfide 3-14) | <1 |
| 0.125 | 0.0625 | 0.125 | CC[C@H](C)[C@H](NC(=O)[C@@H]1C=CCN1C(=O)[C@@H](NC(=N)N)C(C)C)C(=O)N[C@@H]1C(=O)N[C@@H](Cc2ccc(O)cc2)C(=O)N[C@@H]([C@@H](C)O)C(=O)N[C@@H](CC(N)=O)C(=O)N[C@@H](CCCNC(=N)N)C(=O)N[C@@H](CCN)C(=O)N[C@@H]([C@@H](C)O)C(=O)N[C@H](CCN)C(=O)N[C@@H](CO)C(=O)N[C@@H](CCN)C(=O)N[C@@H](CCN)C(=O)N[C@H](C(=O)N[C@@H](Cc2ccc(O)cc2)C(=O)O)CSSC1(C)C [Example 111, Gua-Val-Pro(3,4dehydro)-Ile-Pen-Tyr-Thr-Asn-Arg-Dab-Thr-^DDab-Ser-Dab-Dab-Cys-Tyr] ({Val(Nα-amidino)}-[ΔPro]I[Pen]YTNR[Dab]T[dDab]S[Dab][Dab]CY-OH; disulfide 3-14) | <1 |

— patent US20240336654A1, “ANTIMICROBIAL PEPTIDOMIMETICS” (SPEXIS AG, priority 2021, published 2024)
